Test results reported in ChEMBL document CHEMBL1126336, “Benzopyranyl-cyanoguanidine potassium channel openers” (Bioorg Med Chem Lett, 1992).

Tests used:
Assay type in all cases: functional
Rattus norvegicus [1] = species on record: Rattus norvegicus; experiment: Vasorelaxant potency required to relax methoxamine contracted male Wistar Kyoto rat thoracic aorta
Rattus norvegicus [2] = experiment: Antihypertensive activity expressed as percent maximum decrease in blood pressure at 45 umol/kg for 0-6 hrs in male spontaneously hypertensive rats when administered perorally
Rattus norvegicus [3] = experiment: Antihypertensive activity expressed as percent maximum decrease in blood pressure at 45 umol/kg for 12-18 hrs in male spontaneously hypertensive rats when administered perorally
Rattus norvegicus [4] = experiment: Antihypertensive activity expressed as percent maximum decrease in blood pressure at 45 umol/kg for 18-24 hrs in male spontaneously hypertensive rats when administered perorally
Rattus norvegicus [5] = experiment: Antihypertensive activity expressed as percent maximum decrease in blood pressure at 45 umol/kg for 6-12 hrs in male spontaneously hypertensive rats when administered perorally

Structure (SMILES)	IC50 (Rattus norvegicus [1]) [nM]	also measured
CC1(C)Oc2ccc(C#N)cc2[C@@H](/N=C(\NC#N)N2CCN(Cc3ccccc3)CC2)[C@@H]1O	13100	
CN(C)CC/N=C(/NC#N)N[C@@H]1c2cc(C#N)ccc2OC(C)(C)[C@H]1O	> 100000	
CC1(C)Oc2ccc(C#N)cc2[C@@H](/N=C(\NC#N)N2CCCC2)[C@@H]1O	34	
CC1(C)Oc2ccc(C#N)cc2[C@@H](/N=C(/N)NC#N)[C@@H]1O	320	
CC/N=C(/NC#N)N[C@@H]1c2cc(C#N)ccc2OC(C)(C)[C@H]1O	380	
CC1(C)Oc2ccc(C#N)cc2[C@@H](N2CCCN=C2NC#N)[C@@H]1O	120	
CCC(C)(C)/N=C(\NC#N)N[C@@H]1c2cc(C#N)ccc2OC(C)(C)[C@H]1O	29800	
COCC/N=C(/NC#N)N[C@@H]1c2cc(C#N)ccc2OC(C)(C)[C@H]1O	1690	
CN(C)/C(=N/[C@@H]1c2cc(C#N)ccc2OC(C)(C)[C@H]1O)NC#N	490	
CC(C)/N=C(/NC#N)N[C@@H]1c2cc(C#N)ccc2OC(C)(C)[C@H]1O	660	
CC1(C)Oc2ccc(C#N)cc2[C@@H](N2CCN=C2NC#N)[C@@H]1O	470	
C/N=C(\NC#N)N[C@@H]1c2cc(C#N)ccc2OC(C)(C)[C@H]1O	200	Max decrease (Rattus norvegicus [2]): 46%; Max decrease (Rattus norvegicus [3]): 23%; Max decrease (Rattus norvegicus [4]): 15%; Max decrease (Rattus norvegicus [5]): 44%
CC1(C)Oc2ccc(C#N)cc2[C@@H](N2CCCC2=O)[C@@H]1O [CROMAKALIM]		Max decrease (Rattus norvegicus [2]): 63%; Max decrease (Rattus norvegicus [3]): 37%; Max decrease (Rattus norvegicus [4]): 42%; Max decrease (Rattus norvegicus [5]): 35%
CC(N/C(=N\C#N)Nc1ccncc1)C(C)(C)C (centres undefined) [PINACIDIL ANHYDROUS]		Max decrease (Rattus norvegicus [2]): 40%; Max decrease (Rattus norvegicus [3]): 23%; Max decrease (Rattus norvegicus [4]): 14%; Max decrease (Rattus norvegicus [5]): 21%
